Results reported in ChEMBL document CHEMBL1201862, “PubChem BioAssay data set” (2004).
Active and inactive are the calls of the source.

Tests used:
[1] = Late stage assay provider results from the probe development effort to identify inhibitors of the Plasmodium falciparum M17 Leucine Aminopeptidase (M17LAP): radiolabel-based cell-based dose response assay to identify compounds that inhibit P. falciparum growth in RBCs Set 2.; type: functional
[2] = viability loss in HepG2 hepatoma cells – cell-based, cherry-picks, set 5, cytotoxicity control, dose response (AID 1053118); type: functional
[3] = T. cruzi growth inhibition in host cells, dose response, cell-based, plate reader, dry powder, set 2 (AID 652275); type: functional
[4] = cytotoxicity in MITF-independent A375 cells – cell-based, CellTiter-Glo luminescence, dry powder, set 4, counter-screen for MITF inhibitor project, dose response (AID 624364); type: functional; settings: A-375;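 note: A375 melanoma cells are MITF independent so this is a counter screen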
[5] = viability loss in MITF-independent A375 cells – cell-based, CellTiter-Glo luminescence, dry powder, set 2, counter-screen for MITF inhibitor project, dose response (AID 624489); type: functional; settings: A-375;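 note: actives are compounds lowering A375 viability meaning general cytotoxicity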
[6] = Late stage assay provider results from the probe development effort to identify selective inhibitors of heat shock protein 90 (HSP90): Absorbance-based cell proliferation assay in MCF7 cells.; type: functional
[7] = Late stage assay provider results from the probe development effort to identify selective inhibitors of heat shock protein 90 (HSP90): Absorbance-based cell proliferation assay in SKBR3 cells.; type: functional; settings: SK-BR-3
[8] = mouse embryonic fibroblast toxicity – cell-based, plate reader, dry powder, set 2, cytotoxicity control, dose response (AID 652280); type: functional; settings: NIH3T3
[9] = COV434 cell viability loss – plate reader, dry powder, SA7, cytotoxicity control for PAX8 inhibitor project, dose response (AID 743145); type: functional, cell-based
[10] = PAX5 cellular inhibition readout – cell-based, plate reader, dry powder samples, selectivity assay for PAX8 inhibitor project, dose response (AID 743047); type: functional;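 note: HEK293 cells carrying a Pax5 driven CD19 promoter luciferase reporter; potency of inhibitors that lower reporter luminescence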
[11] = inhibitors acting on PAX2 in cells – cell-based, plate reader, dry powder samples, selectivity assay for PAX8 inhibitor project, dose response (AID 743048); type: functional;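 note: HEK293 cells carrying a WT1 promoter luciferase reporter driven by expressed Pax2; potency is for inhibition of Pax2 driven reporter signal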
[12] = PAX8-dependent cell viability loss – plate reader, dry powder, dose response (AID 743049); type: functional, cell-based
[13] = viability loss in CEM21 cells – cell-based, plate reader, dry powder, cytotoxicity control, dose response (AID 687026); type: functional
[14] = inhibition of Env-driven cell fusion – HIV entry, plate reader, dry powder, dose response (AID 687023); type: functional, cell-based
[15] = target: E3 ubiquitin-protein ligase UHRF1 (Homo sapiens, UniProt Q96T88); assay: Counterscreen for inhibitors of 5-meCpG-binding domain protein 2 (MBD2): TRFRET-based biochemical high throughput dose response assay to identify inhibitors of binding of ubiquitin-like with PHD and ring finger domains 1 (UHRF1) to methylated oligonucleotide.
Chain of E3 ubiquitin-protein ligase UHRF1 (Q96T88 whole entry, the tested form may be a part): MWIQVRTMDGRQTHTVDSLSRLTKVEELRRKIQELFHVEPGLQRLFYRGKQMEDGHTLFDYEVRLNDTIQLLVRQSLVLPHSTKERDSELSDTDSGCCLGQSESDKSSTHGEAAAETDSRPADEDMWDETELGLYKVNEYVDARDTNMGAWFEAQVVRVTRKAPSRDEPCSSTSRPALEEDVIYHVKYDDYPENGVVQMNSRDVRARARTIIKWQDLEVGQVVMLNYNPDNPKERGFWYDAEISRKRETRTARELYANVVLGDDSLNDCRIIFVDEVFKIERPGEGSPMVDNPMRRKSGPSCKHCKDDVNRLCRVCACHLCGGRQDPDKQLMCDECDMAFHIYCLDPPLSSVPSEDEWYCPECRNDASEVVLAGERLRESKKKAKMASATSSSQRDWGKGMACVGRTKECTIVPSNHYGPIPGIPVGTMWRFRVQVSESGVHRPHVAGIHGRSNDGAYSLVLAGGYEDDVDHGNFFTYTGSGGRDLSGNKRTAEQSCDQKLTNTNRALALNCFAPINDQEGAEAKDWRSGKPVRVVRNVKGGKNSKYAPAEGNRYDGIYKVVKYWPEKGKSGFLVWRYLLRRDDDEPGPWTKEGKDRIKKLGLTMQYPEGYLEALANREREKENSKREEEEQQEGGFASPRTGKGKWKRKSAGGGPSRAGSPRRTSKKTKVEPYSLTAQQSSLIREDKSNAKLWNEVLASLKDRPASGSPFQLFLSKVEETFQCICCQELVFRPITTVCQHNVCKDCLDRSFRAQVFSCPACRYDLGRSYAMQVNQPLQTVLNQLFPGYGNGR

[16] = Trypanosoma cruzi growth suppression in host cells – NIH3T3 host cells, beta-gal luminescence, confirmation (AID 2044); type: functional, cell-based;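 note: intracellular parasites grown in NIH/3T3 mouse fibroblasts as host cells; luminescent beta-galactosidase reporter signal from transgenic T. cruzi replicating inside host cells; inhibitors lower the luminescence signal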
[17] = target: DNA repair and recombination protein RAD54-like (Homo sapiens, UniProt Q92698); assay: RAD54 Holliday junction migration blockers – biochemical, fluorescence, cherry-picked samples, dose series, confirmation (AID 651657); type: functional
Chain of DNA repair and recombination protein RAD54-like (Q92698 whole entry): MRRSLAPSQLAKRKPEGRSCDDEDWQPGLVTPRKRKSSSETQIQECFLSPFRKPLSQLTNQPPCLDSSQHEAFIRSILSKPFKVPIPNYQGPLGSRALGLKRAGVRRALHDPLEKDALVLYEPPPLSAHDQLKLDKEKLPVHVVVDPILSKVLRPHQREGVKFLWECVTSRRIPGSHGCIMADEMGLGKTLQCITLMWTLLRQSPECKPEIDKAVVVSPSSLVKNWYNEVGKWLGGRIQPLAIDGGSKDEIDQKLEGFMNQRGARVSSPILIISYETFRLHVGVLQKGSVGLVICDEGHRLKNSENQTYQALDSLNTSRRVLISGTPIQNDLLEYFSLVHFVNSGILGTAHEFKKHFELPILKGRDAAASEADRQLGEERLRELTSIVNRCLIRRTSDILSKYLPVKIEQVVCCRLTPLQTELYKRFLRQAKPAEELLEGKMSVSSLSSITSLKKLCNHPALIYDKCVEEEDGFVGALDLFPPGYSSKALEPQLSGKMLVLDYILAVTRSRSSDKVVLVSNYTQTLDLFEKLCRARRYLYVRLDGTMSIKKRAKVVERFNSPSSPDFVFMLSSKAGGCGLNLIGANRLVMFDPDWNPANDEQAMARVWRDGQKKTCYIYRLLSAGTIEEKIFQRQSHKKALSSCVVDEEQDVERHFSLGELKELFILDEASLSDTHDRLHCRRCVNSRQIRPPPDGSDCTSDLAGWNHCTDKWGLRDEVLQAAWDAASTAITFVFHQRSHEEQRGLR

[18] = NIH3T3 cell viability loss – ATP luminescence, mouse fibroblasts, counter-screen, dose response (AID 2010); type: functional, cell-based;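 note: cells exposed to compound for about 90 hours before reading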

Cc1ccc(CC(=O)NO)cc1
IC50 [1]: 16.3 µM (inactive)

N#C[C@H]1[C@@H](c2ccccc2C2=CCCCC2)[C@@H](CO)N1S(=O)(=O)c1ccccc1
AC50 [2]: > 47 µM (inactive)

CC(c1ccc(Cl)cc1)N(C)C[C@@H]1CN(C(C)C)C(=O)c2cccc(NC(=O)c3ccncc3)c2O1 (stereo partly drawn)
AC50 [3]: 0.0548 µM (active)

CN1CCN(C2=C(NS(=O)(=O)c3ccc(Br)cc3)C(=O)c3ccccc3C2=O)CC1
AC50 [4]: > 70 µM (inactive)
AC50 [5]: > 70 µM (inactive)

COc1ccc(N/C=C2\C(=O)OC(=O)c3ccccc32)cc1
IC50 [6]: > 100 µM (inactive)
IC50 [7]: > 100 µM (inactive)

Cc1cccc(-c2ccc([C@H]3[C@H](CO)N4CCCCN(Cc5ccncc5)C[C@@H]34)cc2)c1
AC50 [8]: 8.54 µM (active)

N#C[C@H]1[C@@H](c2ccc(C3=CCCC3)cc2)[C@@H](CO)N1C(=O)NC1CCCCC1
AC50 [9]: > 70 µM (inactive)
AC50 [10]: > 70 µM (inactive)
AC50 [11]: 52.1 µM (active)
AC50 [12]: 61.5 µM (active)

Cc1noc(C)c1S(=O)(=O)Nc1cccc2c1O[C@H](CN(C)Cc1ccc(C(F)(F)F)cc1)[C@H](C)CN([C@@H](C)CO)C2=O
AC50 [13]: > 70 µM (inactive)
AC50 [14]: 10.6 µM (active)

Cc1ccc2nc(Cl)c3cc(C(=O)NCCCN4CCCC4)sc3c2c1
IC50 [15]: > 43.8 µM (inactive)
EC50 [16]: 1.65 µM (active)
AC50 [17]: 11.4 µM (active)
EC50 [18]: 9.72 µM (active)
